The test system of one series is HT-29 cells. Kind of series: MTS assay cell viability under SN-38 exposure, HT-29. It is filed as cell-based, human. The conditions noted are these: HT-29, 50 nmol/L SN-38, exposure for 72 hours. The protocol:
(§1) Two human colorectal cancer cell lines (HCT-116 and HT-29) employed were obtained from Kabushiki Kaisha Yakult Honsha.
(§2) Cell culturing was performed by means of a φ100 mm/Tissue Culture Dish (IWAKI) with a medium (Doulbecco's modified Eagle's Medium, 10% fetal bovine serum) at 37° C. under 5% CO2.
(§3) SN-38 powder was obtained from Kabushiki Kaisha Yakult Honsha. SN-38 was dissolved in DMSO, and, before use, the solution was diluted so that the DMSO concentration of each of the culture media employed in experiments was adjusted to 0.1% or less.
(§4) Cells of two colorectal cancer cell lines (HCT-116 and HT-29) were exposed to 50 nmol/L SN-38, and 24, 48, and 72 hours after drug exposure, cell viability was determined by means of an MTS assay (CellTiter96™AQueous One Solution Cell Proliferation Assay, Promega). Sensitivity evaluation of each cell line was performed in triplicate with three different passage numbers of cells, and the mean value and standard deviation were calculated.

For a further series, the system named is HCT-116 cells. Kind of series: MTS assay cell viability under SN-38 exposure, HCT-116. It is filed as cell-based, human. The conditions noted are these: HCT-116, 50 nmol/L SN-38, exposure for 72 hours. The protocol:
as §1, §2, §3, §4
On the technique in general: Tetrazolium assays rely on reduction of a dye to a coloured formazan, in cell work by metabolically active cells.

A further series concerns WiDr. Kind of series: MTS assay sensitivity (IC50) to SN-38, WiDr (Example 3). It is filed as cell-based, human. The conditions noted are these: 72 hours exposure, highest IC50 of eight lines. The protocol:
(§5) Cancer cells of each cell line were exposed to SN-38 (0 nmol/L to 5 μmol/L) for 72 hours. After exposure to SN-38, cell viability was determined by means of an MTS assay (CellTiter96™AQueous One Solution Cell Proliferation Assay, Promega). IC50 (concentration of SN-38 at which 50% of cells in an SN-38-non-treated well are inhibited) was calculated for each cell line and employed as the sensitivity of the cell line to SN-38. Sensitivity determination of each cell line was performed in triplicate and twice.
(§6) The experiment procedure of Example 2 was repeated twice. The data obtained in the experiments (three times in total) were further analyzed. Peaks detected through CE-TOFMS in the tested cell samples were compared with the data of 278 standard samples whose m/z values and migration times were already known, whereby 146 metabolites were identified in any of the tested cell samples. The 146 metabolites were investigated through single regression analysis in terms of the correlation between the intracellular content (in eight human colorectal cancer cell lines) and Log[IC50] of each cell line.
(§7) The sensitivity of each of eight human colorectal cancer cell lines (HCT-116, HT-29, HCT-15, Lovo, LS174T, SW480, SW620, and WiDr) was evaluated by employing IC50 calculated through MTS assay as an index.

The subject of another series is LS174T. Kind of series: MTS assay sensitivity (IC50) to SN-38, LS174T (Example 3). It is filed as cell-based, human. The conditions noted are these: 72 hours exposure, lowest IC50 of eight lines. The method, then:
as §5, §6, §7

For series [1] the following is noted: background statement; cited from earlier work.

Structures are written as SMILES.

Usually IC50 stands for the midpoint of a concentration-inhibition curve.

As to `CCc1c2c(nc3ccc(O)cc13)-c1cc3c(c(=O)n1C2)COC(=O)[C@]3(O)CC` [SN-38, 7-ethyl-10-hydroxycamptothecin], the cell viability entry in the series on HT-29 cells is “about 85%”; with HCT-116 cells, “about 35%”. Further, the IC50 came to 63.3 ± 10.9 nM in the series on WiDr and 0.71 ± 0.18 nM in the series with LS174T. The “anti-tumor activity relative to CPT-11” value in series [1] is reported as “about 100 times to some thousand times that of CPT-11”.
For `CCc1c2c(nc3ccc(O[C@@H]4O[C@H](C(=O)O)[C@@H](O)[C@H](O)[C@H]4O)cc13)-c1cc3c(c(=O)n1C2)COC(=O)[C@]3(O)CC` [SN-38G, SN-38 glucuronate conjugate], the cytotoxicity entry in series [1] is on record as “no cytotoxicity”.

The record behind these values is patent US8809362B2, “Anticancer agent sensitivity-determining marker” (priority 2009, dated 2014).
